Data taken from US8591892B2, “FTY720 increases CD74 expression and sensitizes cancer cells to anti-CD74 antibody-mediated cell death” (The Ohio State University, priority 2011, dated 2013).

Legend:
four MCL cell lines = test: Cell viability by annexin-V/PI staining and flow cytometry, four lines together; type: cell-based, human; conditions: Jeko-1, Z-138 and UPN-1 cell lines, 24 hours
Protocol: FIG. 4. FTY720 sensitizes MCL cell lines and primary patient tumor cells to milatuzumab-mediated cytotoxicity. (A) Four MCL cell lines and primary cells from 6 patients were treated with FTY720 and/or milatuzumab plus cross-linking antibodies at the indicated concentrations. (B) Patient characteristics. (C) Individual patient responses. (D) Representative histograms summarizing patient responses. Cell death was determined by annexin V/PI staining and flow cytometry at 24 hours. Data are shown as the percentage of annexin V−/PI− cells (live cells) and are normalized to untreated controls.
To assess lysosomal volume, FTY720 treated cells were incubated with LYSOTRACKER™ green DND-26. To assess lysosomal membrane permeability, FTY720 treated cells were incubated with acridine orange (MOLECULAR PROBES; INVITROGEN). For analysis of cell viability, MCL cell lines (0.5×10^6/ml) and primary cells (1×10^6/ml) were treated with FTY720, milatuzumab, and the combination of both. […] Cell viability was measured at 24 hours by dual staining with annexin-V FITC and propidium iodide (PI). A total of 10,000 events were collected and analyzed using WinMDI.
The in vitro survival of four MCL cell lines treated with FTY720, milatuzumab in the presence of a cross-linking antibody, and the combination of FTY720 and milatuzumab was determined at 24 hours by annexin-V/PI staining and flow cytometry. […]

Aspc-1 = test: Flow cytometry of CD74, HLA-DR, CEACAM5 with directly labeled MAbs, with and without IFN-γ; type: cell-based
Protocol: (§1) Expression of CD74, HLA-DR, and carcinoembryonic antigen (CEACAM5) was determined in untreated cells and cells exposed to 200 U of IFN-γ for 48 h by flow cytometry. Cells were stained with directly labeled MAbs in comparison to a directly labeled human IgG control. Antibodies were labeled using ALEXA FLUOR® 488 (Invitrogen, Carlsbad, Calif.). For determination of cytoplasmic antigen expression, cells were permeabilized prior to staining using the BD CYTOFIX/CYTOPERM™ kit (BD Biosciences, San Jose, Calif.).

HT29 = test: as above; type: cell-based
Protocol: as §1

FSCCL = test: as above; type: cell-based
Protocol: as §1

RL = test: as above; type: cell-based
Protocol: as §1

KMS11 = test: as above; type: cell-based
Protocol: as §1

Panc-1 = test: as above; type: cell-based
Protocol: as §1

CAG = test: as above; type: cell-based
Protocol: as §1

U87 = test: as above; type: cell-based
Protocol: as §1

Capan-1 = test: as above; type: cell-based
Protocol: as §1

Moser = test: as above; type: cell-based
Protocol: as §1

TU118 = test: as above; type: cell-based
Protocol: as §1

U118 = test: as above; type: cell-based
Protocol: as §1

Lovo = test: as above; type: cell-based
Protocol: as §1

BxPC-3 = test: as above; type: cell-based
Protocol: as §1

LS174T = test: as above; type: cell-based
Protocol: as §1

human AML cell lines = test: Proliferation assays, milatuzumab with/without IFN-γ; type: cell-based
Protocol: CD74 expression in bone marrow biopsy (BMB) specimens from non-M3 AML patients was evaluated by immunohistochemistry and, for 3 human AML cell lines, by flow cytometry, with/without permeabilization and with/without IFN-γ (40 and 200 U/mL). These cell lines were also tested in proliferation assays for responses to milatuzumab, with/without IFN-γ. In 13/14 BMB specimens, there was moderate to strong CD74 expression by leukemic blasts, which was mostly intracellular, usually with a perinuclear distribution (data not shown). […] IFN-γ induced intracellular CD74 in all 3 lines (from 85%-868%) (not shown).

milatuzumab: fully humanized monoclonal antibody specific for CD74
activity as single agents (four MCL cell lines): only modest activity
% change of cell surface expression with IFNγ (Aspc-1; Aspc-1): 121.3%
% change of cytoplasmic expression with IFNγ (Aspc-1; Aspc-1): 1451.5%
Cell surface expression (staining with directly labeled MAb) (Aspc-1; Aspc-1 + IFNγ 200 U, 48 h): 7.3
Cell surface expression (staining with directly labeled MAb) (Aspc-1; Aspc-1, without IFN-γ): 3.3
% change of cell surface expression with IFNγ (HT29; HT29): 141.1%
% change of cytoplasmic expression with IFNγ (HT29; HT29): 1766.6%
Cell surface expression (staining with directly labeled MAb) (HT29; HT29 + IFNγ 200 U, 48 h): 8.3
Cell surface expression (staining with directly labeled MAb) (HT29; HT29, without IFN-γ): 3.4
% change of cell surface expression with IFNγ (FSCCL; FSCCL): 32.8%
% change of cytoplasmic expression with IFNγ (FSCCL; FSCCL): 58.5%
Cell surface expression (staining with directly labeled MAb) (FSCCL; FSCCL + IFNγ 200 U, 48 h): 19.0
Cell surface expression (staining with directly labeled MAb) (FSCCL; FSCCL, without IFN-γ): 14.3
% change of cell surface expression with IFNγ (RL; RL): 23.8%
% change of cytoplasmic expression with IFNγ (RL; RL): 3.7%
Cell surface expression (staining with directly labeled MAb) (RL; RL + IFNγ 200 U, 48 h): 25.0
Cell surface expression (staining with directly labeled MAb) (RL; RL, without IFN-γ): 20.2
% change of cell surface expression with IFNγ (KMS11; KMS11): 14.0%
% change of cytoplasmic expression with IFNγ (KMS11; KMS11): −1.9%
Cell surface expression (staining with directly labeled MAb) (KMS11; KMS11 + IFNγ 200 U, 48 h): 5.1
Cell surface expression (staining with directly labeled MAb) (KMS11; KMS11, without IFN-γ): 4.4
% change of cell surface expression with IFNγ (Panc-1; Panc-1): 9.4%
% change of cytoplasmic expression with IFNγ (Panc-1; Panc-1): 208.7%
Cell surface expression (staining with directly labeled MAb) (Panc-1; Panc-1 + IFNγ 200 U, 48 h): 4.9
Cell surface expression (staining with directly labeled MAb) (Panc-1; Panc-1, without IFN-γ): 4.5
% change of cell surface expression with IFNγ (CAG; CAG): −5.4%
% change of cytoplasmic expression with IFNγ (CAG; CAG): 19.8%
Cell surface expression (staining with directly labeled MAb) (CAG; CAG + IFNγ 200 U, 48 h): 39.2
Cell surface expression (staining with directly labeled MAb) (CAG; CAG, without IFN-γ): 41.5
% change of cell surface expression with IFNγ (U87; U87): 75.6%
% change of cytoplasmic expression with IFNγ (U87; U87): 158.8%
Cell surface expression (staining with directly labeled MAb) (U87; U87 + IFNγ 200 U, 48 h): 9.5
Cell surface expression (staining with directly labeled MAb) (U87; U87, without IFN-γ): 5.4
Cell surface expression (staining with directly labeled MAb) (Capan-1; Capan + IFNγ 200 U, 48 h): 11.1
% change of cell surface expression with IFNγ (Capan-1; Capan-1): 152.4%
% change of cytoplasmic expression with IFNγ (Capan-1; Capan-1): 561.2%
Cell surface expression (staining with directly labeled MAb) (Capan-1; Capan-1, without IFN-γ): 4.4
% change of cell surface expression with IFNγ (Moser; Moser): 16.3%
% change of cytoplasmic expression with IFNγ (Moser; Moser): 86.1%
Cell surface expression (staining with directly labeled MAb) (Moser; Moser + IFNγ 200 U, 48 h): 4.8
Cell surface expression (staining with directly labeled MAb) (Moser; Moser, without IFN-γ): 4.1
% change of cell surface expression with IFNγ (TU118; TU118): 167.8%
% change of cytoplasmic expression with IFNγ (TU118; TU118): 374.6%
Cell surface expression (staining with directly labeled MAb) (TU118; TU118 + IFNγ 200 U, 48 h): 19.2
Cell surface expression (staining with directly labeled MAb) (TU118; TU118, without IFN-γ): 7.17
% change of cell surface expression with IFNγ (U118; U118): 160.9%
% change of cytoplasmic expression with IFNγ (U118; U118): 428.2%
Cell surface expression (staining with directly labeled MAb) (U118; U118 + IFNγ 200 U, 48 h): 18.3
Cell surface expression (staining with directly labeled MAb) (U118; U118, without IFN-γ): 7.0
% change of cell surface expression with IFNγ (Lovo; Lovo): 173.7%
% change of cytoplasmic expression with IFNγ (Lovo; Lovo): 756.0%
Cell surface expression (staining with directly labeled MAb) (Lovo; Lovo + IFNγ 200 U, 48 h): 9.2
Cell surface expression (staining with directly labeled MAb) (Lovo; Lovo, without IFN-γ): 3.4
% change of cell surface expression with IFNγ (BxPC-3; BxPC-3): 142.2%
% change of cytoplasmic expression with IFNγ (BxPC-3; BxPC-3): 1763.5%
Cell surface expression (staining with directly labeled MAb) (BxPC-3; BxPC-3 + IFNγ 200 U, 48 h): 6.2
Cell surface expression (staining with directly labeled MAb) (BxPC-3; BxPC-3, without IFN-γ): 2.6
% change of cell surface expression with IFNγ (LS174T; LS174T): −11.3%
% change of cytoplasmic expression with IFNγ (LS174T; LS174T): 112.7%
Cell surface expression (staining with directly labeled MAb) (LS174T; LS174T + IFNγ 200 U, 48 h): 5.2
Cell surface expression (staining with directly labeled MAb) (LS174T; LS174T, without IFN-γ): 5.9
growth inhibition (human AML cell lines; first responding AML line, with IFN-γ): 44.8%
growth inhibition (human AML cell lines; first responding AML line, without IFN-γ): 23.7%
growth inhibition (human AML cell lines; second responding AML line, with IFN-γ): 30.9%
growth inhibition (human AML cell lines; second responding AML line, without IFN-γ): −3.9%
